# According to patent publication US20140370594A1, “BIOLOGICAL CONVERSION OF BIOMASS-DERIVED SUGARS TO VALUE ADDED CHEMICALS” (WISCONSIN ALUMNI RESEARCH FOUNDATION, priority 2013, published 2014):
# Tests used:
# yeast = experiment: Growth in minimal media supplemented with GVL, aerobic (FIGS. 9-13); format: cell-based; conditions: GVL concentrations of about 2% (wt/vol) and less, minimal medium
# Procedure: Yeast cultures were picked from single colonies and grown aerobically overnight in rich YPD broth (5 mL) (Sigma-Aldrich, St. Louis, Mo.) at 30° C. and 250 rpm. The yeast tested were Saccharomyces cerevisiae PE2 (Lallemand, Inc., Montreal, Quebec, Canada; see also Silva-Filho E A, Melo H F, Antunes D F, Santos S K B, Resende A M, Simões D A, Morais M A Jr, “Isolation by genetic and physiological characteristics of a fuel-ethanol fermentative Saccharomyces cerevisiae strain with potential for genetic manipulation,” J Ind Microbiol Biotechnol 2005, 32:481-486), Spathaspora passalidarum NN245 (ARS Culture Collection, NRRL Y-50740), Scheffersomyces stipitis 7124 (ATCC® 58376), and Scheffersomyces stipitis 6054 (ATCC® 58785).
# For the aerobic test media growth experiments, an overnight culture was used to inoculate test media (2 mL) to an OD600 of 0.01. The test cultures were then incubated for 40 hours under the same conditions. A final OD600 was measured after the 40-hour incubation period.
# Test media for E. coli and P. putida were made using MOPS minimal salts and either varying the weight percent of NaCl and GVL or varying dilutions of the aqueous product stream in water. […]
# E. coli = experiment: as above; format: cell-based, Escherichia coli; conditions: GVL concentrations of about 2% (wt/vol) and less, minimal medium
# Procedure: Overnight cultures of E. coli were started from single colonies picked into LB (5 mL) and incubated at 37° C. […] with 250 rpm shaking. The overnight cultures were used to inoculate test media (2 mL) to an OD600 (optical density at 600 nm) of 0.01. These cultures were then incubated as described below. The final OD600 of each culture was measured after 24 hours of incubation.
# (§1) Test media for E. coli and P. putida were made using MOPS minimal salts and either varying the weight percent of NaCl and GVL or varying dilutions of the aqueous product stream in water. L. casei test media were made using Chemically Defined Media for L. casei and yeast aerobic test media were made with Yeast Nitrogen Base (6.7 g/L; Difco, a wholly owned subsidiary of Becton Dickinson and Company, Franklin Lakes, N.J.). Yeast anaerobic media were made with Yeast Nitrogen Base and supplemented with Tween 80 (0.4 wt %) and amino acids (50 mg/L).
# (§2) The next step was to investigate the sensitivity of various microorganisms to salt concentration and GVL concentration. This was accomplished by measuring the growth of E. coli and yeasts in minimal media supplemented with known concentrations of GVL or NaCl under aerobic conditions. The results are depicted in FIGS. 9 through 13. FIG. 9 depicts the growth characteristics of E. coli TY05 in response to increasing concentrations of GVL. […]
# E. coli and yeasts = experiment: Sensitivity of growth to GVL versus NaCl concentration (FIGS. 9-13); format: cell-based; conditions: minimal media supplemented with GVL or NaCl, aerobic
# Text: as §1
# as §2, with “GVL. FIG. 10 depicts the growth characteristics of S. cerevisiae in response to increasing concentrations of GVL. FIG. 11 depicts the growth characteristics of S. cerevisiae PE2 in response to increasing concentrations of NaCl. FIG. 12 depicts the growth characteristics of S. passalidarum NN245 in response to increasing NaCl concentration.” for “GVL.”
structure (smiles),measurement,setting,value
"CC1CCC(=O)O1 (stereo not drawn) [GVL, gamma-valerolactone]",growth in the presence of GVL,yeast,very significant growth
same,growth in the presence of GVL,E. coli,very significant growth
same,impact of concentration on cell growth as compared to NaCl,E. coli and yeasts,stronger impact on cell growth
